From PubChem BioAssay (NCI)
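Method: 48-hour compound exposure of cells in 96-well plates, five concentrations, linear interpolation of endpoints. GI50 is the concentration that inhibits growth by half. TGI marks complete inhibition of growth.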

How the values were obtained:
Test in all cases: inhibition of tumour cell growth, NCI panel, 48 h
A498 renal = test system: A498 renal
BT-549 breast = test system: BT-549 breast
CAKI-1 renal = test system: CAKI-1 renal
EKVX NSCLC = test system: EKVX NSCLC
HCC-2998 colon = test system: HCC-2998 colon
HCT-116 colon = test system: HCT-116 colon
HCT-15 colon = test system: HCT-15 colon
HOP-62 NSCLC = test system: HOP-62 NSCLC
HS 578T breast = test system: HS 578T breast
HT29 colon = test system: HT29 colon
IGROV1 ovarian = test system: IGROV1 ovarian
K-562 leukemia = test system: K-562 leukemia
KM12 colon = test system: KM12 colon
LOX IMVI melanoma = test system: LOX IMVI melanoma
MCF7 breast = test system: MCF7 breast
MDA-MB-435 = test system: MDA-MB-435
MOLT-4 leukemia = test system: MOLT-4 leukemia
NCI-H226 lung = test system: NCI-H226 lung
NCI-H460 lung = test system: NCI-H460 lung
NCI-H522 lung = test system: NCI-H522 lung
NCI/ADR-RES ovarian = test system: NCI/ADR-RES ovarian
OVCAR-3 ovarian = test system: OVCAR-3 ovarian
OVCAR-5 ovarian = test system: OVCAR-5 ovarian
OVCAR-8 ovarian = test system: OVCAR-8 ovarian
SF-268 CNS = test system: SF-268 CNS
SK-MEL-2 melanoma = test system: SK-MEL-2 melanoma
SK-MEL-28 melanoma = test system: SK-MEL-28 melanoma
SK-MEL-5 melanoma = test system: SK-MEL-5 melanoma
SK-OV-3 ovarian = test system: SK-OV-3 ovarian
SN12C renal = test system: SN12C renal
SNB-19 CNS = test system: SNB-19 CNS
SR leukemia = test system: SR leukemia
SW-620 colon = test system: SW-620 colon
UACC-257 melanoma = test system: UACC-257 melanoma
UACC-62 melanoma = test system: UACC-62 melanoma
786-0 renal = test system: 786-0 renal
A549 NSCLC = test system: A549 NSCLC
ACHN renal = test system: ACHN renal
CCRF-CEM leukemia = test system: CCRF-CEM leukemia
HL-60(TB) leukemia = test system: HL-60(TB) leukemia
HOP-92 NSCLC = test system: HOP-92 NSCLC
M14 melanoma = test system: M14 melanoma
NCI-H23 lung = test system: NCI-H23 lung
OVCAR-4 ovarian = test system: OVCAR-4 ovarian
PC-3 prostate = test system: PC-3 prostate
RPMI-8226 leukemia = test system: RPMI-8226 leukemia
RXF 393 renal = test system: RXF 393 renal
SF-539 CNS = test system: SF-539 CNS
TK-10 renal = test system: TK-10 renal
U251 CNS = test system: U251 CNS
UO-31 renal = test system: UO-31 renal
COLO 205 colon = test system: COLO 205 colon
DU-145 prostate = test system: DU-145 prostate
MALME-3M melanoma = test system: MALME-3M melanoma
MDA-MB-231 breast = test system: MDA-MB-231 breast
SF-295 CNS = test system: SF-295 CNS
SNB-75 CNS = test system: SNB-75 CNS
T-47D breast = test system: T-47D breast

CC(=O)Nc1ccc2[nH]c(C(=O)N3CC(CCl)c4c3cc(N)c3ccccc43)cc2c1 (stereo not drawn)
TGI (A498 renal): 0.0554 µM
TGI (BT-549 breast): 0.335 µM
TGI (CAKI-1 renal): < 0.01 µM
TGI (EKVX NSCLC): 0.0851 µM
TGI (HCC-2998 colon): < 0.01 µM
TGI (HCT-116 colon): < 0.01 µM
TGI (HCT-15 colon): 2.16 µM
TGI (HOP-62 NSCLC): < 0.0262 µM
TGI (HS 578T breast): < 0.01 µM
TGI (HT29 colon): < 0.0309 µM
TGI (IGROV1 ovarian): > 100 µM
TGI (K-562 leukemia): > 100 µM
TGI (KM12 colon): 3.48 µM
TGI (LOX IMVI melanoma): < 0.0255 µM
TGI (MCF7 breast): 2.01 µM
TGI (MDA-MB-435): 0.0767 µM
TGI (MOLT-4 leukemia): < 0.0446 µM
TGI (NCI-H226 lung): < 0.0238 µM
TGI (NCI-H460 lung): 11.6 µM
TGI (NCI-H522 lung): < 0.01 µM
TGI (NCI/ADR-RES ovarian): 0.0534 µM
TGI (OVCAR-3 ovarian): 12.6 µM
TGI (OVCAR-5 ovarian): 1.08 µM
TGI (OVCAR-8 ovarian): < 0.027 µM
TGI (SF-268 CNS): < 0.01 µM
TGI (SK-MEL-2 melanoma): < 0.0192 µM
TGI (SK-MEL-28 melanoma): 0.0761 µM
TGI (SK-MEL-5 melanoma): 0.0267 µM
TGI (SK-OV-3 ovarian): 2.18 µM
TGI (SN12C renal): 0.0751 µM
TGI (SNB-19 CNS): 0.259 µM
TGI (SR leukemia): 0.0298 µM
TGI (SW-620 colon): > 100 µM
TGI (UACC-257 melanoma): < 0.01 µM
TGI (UACC-62 melanoma): < 0.0157 µM

N#Cc1nc(C2=C(Cl)c3ccccc3OC2)[nH]c1C#N
TGI (786-0 renal): > 100 µM
TGI (A498 renal): 66.1 µM
TGI (A549 NSCLC): > 100 µM
TGI (ACHN renal): > 100 µM
TGI (BT-549 breast): 48 µM
TGI (CAKI-1 renal): > 100 µM
TGI (CCRF-CEM leukemia): > 100 µM
TGI (EKVX NSCLC): > 100 µM
TGI (HCC-2998 colon): 61.8 µM
TGI (HCT-15 colon): > 100 µM
TGI (HL-60(TB) leukemia): 70.7 µM
TGI (HOP-92 NSCLC): 31 µM
TGI (HS 578T breast): > 100 µM
TGI (HT29 colon): 41.5 µM
TGI (IGROV1 ovarian): > 100 µM
TGI (K-562 leukemia): > 100 µM
TGI (KM12 colon): 71.9 µM
TGI (LOX IMVI melanoma): 45.6 µM
TGI (M14 melanoma): 34.2 µM
TGI (MCF7 breast): 70 µM
TGI (MOLT-4 leukemia): 40.5 µM
TGI (NCI-H23 lung): 69.1 µM
TGI (NCI-H460 lung): 75.4 µM
TGI (NCI/ADR-RES ovarian): > 100 µM
TGI (OVCAR-3 ovarian): 70.9 µM
TGI (OVCAR-4 ovarian): > 100 µM
TGI (OVCAR-5 ovarian): > 100 µM
TGI (OVCAR-8 ovarian): > 100 µM
TGI (PC-3 prostate): 71.7 µM
TGI (RPMI-8226 leukemia): 61 µM
TGI (RXF 393 renal): 38.8 µM
TGI (SF-268 CNS): > 100 µM
TGI (SF-539 CNS): 45.2 µM
TGI (SK-MEL-28 melanoma): 56.8 µM
TGI (SK-MEL-5 melanoma): 51.1 µM
TGI (SK-OV-3 ovarian): > 100 µM
TGI (SN12C renal): > 100 µM
TGI (SNB-19 CNS): > 100 µM
TGI (SW-620 colon): > 100 µM
TGI (TK-10 renal): > 100 µM
TGI (U251 CNS): 75.9 µM
TGI (UACC-62 melanoma): 64.3 µM
TGI (UO-31 renal): 59.9 µM

O=S1(=O)N(CCNc2nccc(-c3c(-c4cccc(O)c4)nc4sccn34)n2)CCN1Cc1ccccc1
GI50 (A498 renal): 1.78 µM
TGI (A498 renal): 4.35 µM
GI50 (A549 NSCLC): 12.5 µM
TGI (A549 NSCLC): > 50 µM
GI50 (ACHN renal): 3.83 µM
TGI (ACHN renal): 48.2 µM
GI50 (CAKI-1 renal): 4.4 µM
TGI (CAKI-1 renal): 17.8 µM
GI50 (CCRF-CEM leukemia): 2.26 µM
TGI (CCRF-CEM leukemia): 30.9 µM
GI50 (COLO 205 colon): 0.621 µM
TGI (COLO 205 colon): 32.3 µM
GI50 (DU-145 prostate): 8.1 µM
TGI (DU-145 prostate): 26.1 µM
GI50 (EKVX NSCLC): 26.8 µM
TGI (EKVX NSCLC): > 50 µM
GI50 (HCC-2998 colon): 14.2 µM
TGI (HCC-2998 colon): 39.8 µM
GI50 (HCT-116 colon): 5.56 µM
TGI (HCT-116 colon): 19.4 µM
GI50 (HCT-15 colon): 6.05 µM
TGI (HCT-15 colon): 20.9 µM
GI50 (HL-60(TB) leukemia): 8.4 µM
TGI (HL-60(TB) leukemia): 20.1 µM
GI50 (HOP-62 NSCLC): 24.6 µM
TGI (HOP-62 NSCLC): > 50 µM
GI50 (HOP-92 NSCLC): 12.9 µM
TGI (HOP-92 NSCLC): > 50 µM
GI50 (HS 578T breast): 2.78 µM
TGI (HS 578T breast): 16.6 µM
GI50 (HT29 colon): 2.57 µM
TGI (HT29 colon): 36.4 µM
GI50 (IGROV1 ovarian): 6.65 µM
TGI (IGROV1 ovarian): 43.6 µM
GI50 (K-562 leukemia): 3.44 µM
TGI (K-562 leukemia): > 50 µM
GI50 (KM12 colon): 5.44 µM
TGI (KM12 colon): 15.3 µM
GI50 (LOX IMVI melanoma): 2.57 µM
TGI (LOX IMVI melanoma): 16.2 µM
GI50 (M14 melanoma): 0.461 µM
TGI (M14 melanoma): 27.7 µM
GI50 (MALME-3M melanoma): 0.108 µM
TGI (MALME-3M melanoma): > 50 µM
GI50 (MCF7 breast): 4.22 µM
TGI (MCF7 breast): 34.6 µM
GI50 (MDA-MB-231 breast): 3.06 µM
TGI (MDA-MB-231 breast): 26.4 µM
GI50 (MDA-MB-435): 1.23 µM
TGI (MDA-MB-435): > 50 µM
GI50 (MOLT-4 leukemia): 7.84 µM
TGI (MOLT-4 leukemia): 40.3 µM
GI50 (NCI-H226 lung): 7.45 µM
TGI (NCI-H226 lung): 20.8 µM
GI50 (NCI-H23 lung): 7.19 µM
TGI (NCI-H23 lung): 27.7 µM
GI50 (NCI-H460 lung): 3.45 µM
TGI (NCI-H460 lung): 17.1 µM
GI50 (NCI-H522 lung): 2.98 µM
TGI (NCI-H522 lung): 14.9 µM
GI50 (NCI/ADR-RES ovarian): 14.1 µM
TGI (NCI/ADR-RES ovarian): > 50 µM
GI50 (OVCAR-3 ovarian): 6.23 µM
TGI (OVCAR-3 ovarian): > 50 µM
GI50 (OVCAR-4 ovarian): 13.6 µM
TGI (OVCAR-4 ovarian): > 50 µM
GI50 (OVCAR-5 ovarian): 29.8 µM
TGI (OVCAR-5 ovarian): > 50 µM
GI50 (OVCAR-8 ovarian): 4.88 µM
TGI (OVCAR-8 ovarian): > 50 µM
GI50 (PC-3 prostate): 5.66 µM
TGI (PC-3 prostate): > 50 µM
GI50 (RPMI-8226 leukemia): 4.41 µM
TGI (RPMI-8226 leukemia): 14.3 µM
GI50 (RXF 393 renal): 0.982 µM
TGI (RXF 393 renal): 9.37 µM
GI50 (SF-268 CNS): 15.3 µM
TGI (SF-268 CNS): > 50 µM
GI50 (SF-295 CNS): 7.57 µM
TGI (SF-295 CNS): 20.3 µM
GI50 (SF-539 CNS): 7.14 µM
TGI (SF-539 CNS): > 50 µM
GI50 (SK-MEL-2 melanoma): 1.55 µM
TGI (SK-MEL-2 melanoma): 4.59 µM
GI50 (SK-MEL-28 melanoma): 0.417 µM
TGI (SK-MEL-28 melanoma): > 50 µM
GI50 (SK-MEL-5 melanoma): 3.04 µM
TGI (SK-MEL-5 melanoma): 9.79 µM
GI50 (SN12C renal): 9.5 µM
TGI (SN12C renal): > 50 µM
GI50 (SNB-19 CNS): 36.4 µM
TGI (SNB-19 CNS): > 50 µM
GI50 (SNB-75 CNS): 9.38 µM
TGI (SNB-75 CNS): > 50 µM
GI50 (SR leukemia): 9.76 µM
TGI (SR leukemia): > 50 µM
GI50 (SW-620 colon): 7.87 µM
TGI (SW-620 colon): > 50 µM
GI50 (T-47D breast): 5.16 µM
TGI (T-47D breast): 27 µM
GI50 (TK-10 renal): 4.07 µM
TGI (TK-10 renal): 29.2 µM
GI50 (U251 CNS): 8.21 µM
TGI (U251 CNS): > 50 µM
GI50 (UACC-257 melanoma): 0.996 µM
TGI (UACC-257 melanoma): 43.1 µM
GI50 (UACC-62 melanoma): 0.136 µM
TGI (UACC-62 melanoma): 5.29 µM
GI50 (UO-31 renal): 3.01 µM
TGI (UO-31 renal): 39.3 µM
